From article PMC9364316, “Macromolecular and Solution Properties of the Recombinant Fusion Protein HUG” (Biomacromolecules, 2022)

Biological target: T1, HUG (HELP-UnaG) (Anguilla japonica, UniProt P0DM59)
T1 construct: entire UnaG (139 aa) fused to the C-terminus of the synthetic human elastin-like polypeptide HELP (536 aa, VAPGVG hexapeptide repeats); fusion of 675 aa, 60,406 Da; expressed in E. coli, purified by inverse phase transition
Experiment: fluorescence titration (ex […] nm, em […] nm), nonlinear fit of […] binding model

T1 sequence (P0DM59 whole entry, the tested form may be a part): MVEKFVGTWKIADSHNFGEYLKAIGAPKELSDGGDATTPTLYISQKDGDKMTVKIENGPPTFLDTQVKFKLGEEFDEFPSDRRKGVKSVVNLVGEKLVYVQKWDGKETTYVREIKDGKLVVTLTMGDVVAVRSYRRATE

Question: For C=CC1=C(C)/C(=C/c2[nH]c(Cc3[nH]c(/C=C4\NC(=O)C(C)=C4C=C)c(C)c3CCC(=O)O)c(CCC(=O)O)c2C)NC1=O [bilirubin], which Kd is on record?
Answer: 1.1 nM
